This note sets out measurements from US11110080B2, “Small molecule inhibitors of bacterial efflux pumps and methods of using same” (The Regents of the University of Colorado, a body Corporate, priority 2017, dated 2021).

The subject of one data set is S.Tm. In words: Swimming assay in soft agar (proton motive force). The data set is classed as cell-based, Salmonella enterica serovar Typhimurium. Particulars: 50× the MIC (6.25 mM). The procedure:
One way to inhibit efflux pumps is to disrupt the proton motive force, which is required for transport by some EPs. […] Bacteria were injected into the center of 0.25% agar plates, and 10 μl of compound was added to paper disks on the periphery. […] Also ampicillin and rifampicin were tested. We plotted the halo radius versus the concentration as the fold above the MIC (FIG. 9G). […] Next, it was determined whether PAβN inhibited swimming; PAβN is thought to disrupt membranes over long incubations. […] Finally, the EPMs at […] were tested (FIGS. 9D-F).
Saturated overnight cultures were diluted to an OD600 of 0.01 in LB and 1 μL was injected into the center of low agar (0.25%) LB plates. Ten microliters of the indicated compounds were added to sterilized Whatman paper disks (diameter 0.7 cm) placed equidistant from the plate center.

Data set [1] concerns bacterial inner membrane potential. The experiment in a line: TMRM incorporation (inner membrane potential). Type of data set: cell-based, Salmonella. The following applies: 30 minutes, CCCP 1 mM. As to the method: (§1) FIGS. 20A and 20B depict Bacteria treated with DMSO or EPMs [100 μM] but not CCCP [1 mM] acquire TMRM staining within 30 minutes. FIG. 20A depicts representative data from one of three independent experiments. FIG. 20B depicts median fluorescence intensity from three experiments normalized to unstained control (0). FIG. 20C depicts disk diffusion assays; the radius of the zone of growth inhibition after 16 hours of exposure to compound across a dose range. Black lines, semilog fit for the combined antibiotic data; gray lines, semilog fit for CCCP and PAβN; dotted line, limit of detection (disk radius). Average of two measurements from each image captured from one experiment representative of two independent experiments. FIGS. 20D and 20E depict nitrocefin access to the periplasm as monitored by nitrocefin [100 μM] hydrolysis in the presence of the indicated concentrations of compounds. FIG. 20D depicts absorbance 486 nm of bla+ Salmonella normalized to bla− Salmonella. […]
To establish whether the three EPMs alter bacterial inner membrane potential, their effect on the incorporation of the voltage-sensitive dye Tetramethylrhodamine methyl ester (TMRM) was observed. […] To establish whether a longer incubation with the EPMs may compromise membrane integrity, the effect of the EPMs on bacterial swimming, an energy intensive activity was monitored over 15 hours (FIGS. 20C, 10). […]

Data set [2] relates to S.Tm in RAW 264.7 macrophages. In words: SAFIRE in the presence of a transcriptional (DRB) or translational (cycloheximide) inhibitor. The data set is classed as cell-based, Salmonella enterica serovar Typhimurium. Particulars: 100 μM DRB or 1 μM cycloheximide, no EPM. As to the method: FIG. 13A depicts that RAWs were infected and treated with 25 μM of the indicated compounds using SAFIRE. From 2-18 hours post-infection, cells were treated with DMSO, 100 μM DRB, or 1 μM cycloheximide (CHX). Data for each inhibitor (DRB, CHX) treatment are normalized to cells not treated with EPMs, as differences in basal infection were observed (FIG. 10). Data are mean+SEM of three independent biological replicates, each performed in triplicate. FIG. 13B depicts that RAWs were seeded in 6-well dishes and treated in parallel with FIG. 13A. RNA was extracted at the indicated timepoints, reverse transcribed, and expression of the indicated genes was determined using qPCR. Data shown are mean+SEM of four separate wells from one replicate, and were performed in parallel with one replicate of (A). ****p<0.0001 compared to uninfected by two-way ANOVA with Dunnett's post-test.
Therefore, the question was whether the EPMs require host transcription or translation of AMPs or other factors, for antimicrobial activity. SAFIRE was performed in the presence of a transcriptional (DRB) or translational (cycloheximide) inhibitor (FIG. 13). Since exposure to inhibitors prior to infection greatly diminished macrophage viability, DRB or cycloheximide was added 2 hours post-infection, concurrently with EPMs. […]

Data set [3] can be described thus: Freeze-thaw sensitivity of DMSO solution, read out by SAFIRE. Type of data set: physicochemical. The following applies: 25 μM; freeze thawed 20 times vs freshly dissolved. The procedure:
SAFIRE was used to quantify infection of macrophages treated with 25 μM nalidixic acid that was cherry-picked from the plates used to perform the screen (n=2), freshly dissolved in DMSO (n=3), or freshly dissolved and freeze thawed 20 times (n=3). Data are mean+SEM.

The test system of data set [4] is Salmonella enterica serovar Typhimurium (S.Tm) within RAW 264.7 murine macrophages. The experiment in a line: SAFIRE: fluorescence microscopy assay of S.Tm load within macrophages. Type of data set: cell-based. As to the method: A high-content, high-throughput fluorescence microscopy-based screening platform to assay S.Tm load within macrophages was developed (FIG. 1A). RAW 264.7 murine macrophages, a widely used cell line for bacterial infection studies, were infected with bacteria in a standard gentamicin protection assay. The Salmonella expressing GFP driven by the sifB promoter was incubated with the compound beginning at 2 hours post-infection. At 18 hours post-infection, cells were stained with MitoTracker Red CMXRos as a marker of macrophage vitality and processed for fluorescence microscopy. Stained with DAPI. A MATLAB®-based algorithm was developed to quantify infection (FIG. 1B) and compared to statistics to describe infection. Percentage of infected cells was determined by counting the proportion of macrophages within an image with at least 2 GFP+ pixels. Infection area was calculated by normalizing the number of GFP+ pixels within a cell to the cell's total area, then averaging across all cells in an image. To evaluate the approach, 2 μg/ml rifampicin in 96-well and 384-well plates was tested in three independent replicates. The Z′-factor was employed as a measure of assay reproducibility. Numbers close to 1 indicated high reproducibility. For percentage of infected macrophages, the Z′-factor was 0.59 and 0.48 in 96-well and 384-well plates, respectively, compared with 0.66 and 0.38 for infection area. The optimal Z′-factor threshold for high-throughput screening was 0.5; however, values above 0 were considered marginal but feasible. Therefore, the percentage of infected macrophages statistic was used.
The 14,400 compound library Maybridge HitFinder™ v11 was screened, which has been extensively screened against mammalian and microbial targets. The library was screened in duplicate at 25 μM in 384-well plates (FIG. 1C). Data were normalized using the B-score method to remove positional variation. The significance of B-scores was calculated using a modified t-test assuming an inverse gamma distribution of variances. Using a dual threshold of B-score greater than 1 and standard deviation from the mean and p-value less than 0.05, 908 compounds (6.3%) were identified that decreased or increased the percentage of infected macrophages. […] Compounds that altered infection by at least 25% in 96-well plates were considered validated hits.
For high-throughput screening and validation, 7×10^3 macrophages in 40 μL or 3×10^4 macrophages in 100 μL were seeded in 384- or 96-well black-walled, glass-bottomed plates (Brooks Automation). […] Forty-five minutes after bacterial addition, 20 or 50 μL gentamicin was added to a final concentration of 40 μg/mL. […] At 2 hours post-infection, 200 or 500 nL compound was added using a pin tool (CyBio) to yield a final concentration of 25 μM. Each assay plate included rifampicin and DMSO controls. In some experiments, media was removed and replaced with fresh medium containing 40 μg/mL gentamicin and the indicated concentrations of drugs. At 17.5 hours post-infection, PBS containing MitoTracker Red CMXRos (Life Technologies) was added to yield a final concentration of 300 nM (384-well) or 100 nM (96-well). Thirty minutes later, 16% paraformaldehyde was added to a final concentration of 1-2% and incubated at room temperature for 15 minutes. Wells were washed twice with PBS and stained for 20 minutes with 1 μM DAPI; wells were washed twice and stored in 90% glycerol in PBS until imaging.
High magnification images were acquired on an Olympus IX81 inverted widefield microscope. For screening imaging, three-color images were acquired at 10× or 20× on a Cellomics ArrayScan VTI (Thermo) and exported to DIB files. At least two images were taken per well for all experiments. […]

The subject of a further data set is bacterial outer membrane. In words: Nitrocefin access to the periplasm (outer membrane permeability). The data set is classed as cell-based, Salmonella. The procedure: as §1, with “Salmonella. Data is representative of 3-4 independent biological replicates. FIG. 20E depicts slope of the linear region of the A486 plot from at least three experiments. Data is normalized to A486/minute. *p<0.05, ***p<0.001, ****p<0.0001 by one-way ANOVA with Dunnett's post-test.” for “Salmonella.”

As to `N#CC(C#N)=NNc1cccc(Cl)c1` [CCCP, reference compound], the “halo in swimming assay” value in the data set with S.Tm was “creating a halo”. In data set [1], the “decrease of TMRM levels versus DMSO” value is listed as “approximately 50 fold”.

Turning to `OC[C@H]1O[C@@H](n2cnc3cc(Cl)c(Cl)cc32)[C@H](O)[C@@H]1O` [DRB], the “basal infection of macrophages” value in data set [2] is given as “decreased basal infection”.

As for `CCn1cc(C(=O)O)c(=O)c2ccc(C)nc21` [Nalidixic acid], the “sensitivity to freeze-thawing when dissolved in DMSO” value in data set [3] was “sensitive to freeze-thawing”. Also, in data set [4] (25 μM), the “B-score, first replicate of the screen” value was −4.41 and the “B-score, second replicate of the screen” value stood at 0.70. The “hit status in SAFIRE screen” value in data set [4] (Maybridge HitFinder v11 library screened at 25 μM) is “Nalidixic acid^2”.

Consider `C[C@@H]1C[C@@H]([C@H](O)CC2CC(=O)NC(=O)C2)C(=O)[C@@H](C)C1` [cyclohexamide, cycloheximide], for which the “basal infection of macrophages” value in data set [2] is recorded as “decreased basal infection”.

With polymyxin B, the “nitrocefin access to the periplasm” value is “do not by themselves allow nitrocefin access to the periplasm” with bacterial outer membrane (1 μg/mL) and “high enough to allow nitrocefin access to the periplasm” with bacterial outer membrane (5 μg/mL).
